Laboratory results from ChEMBL document CHEMBL4814042, “Design and synthesis of C-aryl angular luotonins via a one-pot aza-Nazarov-Friedlander sequence and their Topo-I inhibition studies along with C-aryl vasicinones and luotonins” (Bioorg Med Chem Lett, 2021).
Calls of active or inactive are those of the source. The rule behind the calls is not given here.

Each compound was assayed against T1, DNA topoisomerase 1 (Homo sapiens) (UniProt P11387) (assay: Inhibition of human Topoisomerase 1 at 100 uM). Conditions: not given.
T1 sequence (whole entry): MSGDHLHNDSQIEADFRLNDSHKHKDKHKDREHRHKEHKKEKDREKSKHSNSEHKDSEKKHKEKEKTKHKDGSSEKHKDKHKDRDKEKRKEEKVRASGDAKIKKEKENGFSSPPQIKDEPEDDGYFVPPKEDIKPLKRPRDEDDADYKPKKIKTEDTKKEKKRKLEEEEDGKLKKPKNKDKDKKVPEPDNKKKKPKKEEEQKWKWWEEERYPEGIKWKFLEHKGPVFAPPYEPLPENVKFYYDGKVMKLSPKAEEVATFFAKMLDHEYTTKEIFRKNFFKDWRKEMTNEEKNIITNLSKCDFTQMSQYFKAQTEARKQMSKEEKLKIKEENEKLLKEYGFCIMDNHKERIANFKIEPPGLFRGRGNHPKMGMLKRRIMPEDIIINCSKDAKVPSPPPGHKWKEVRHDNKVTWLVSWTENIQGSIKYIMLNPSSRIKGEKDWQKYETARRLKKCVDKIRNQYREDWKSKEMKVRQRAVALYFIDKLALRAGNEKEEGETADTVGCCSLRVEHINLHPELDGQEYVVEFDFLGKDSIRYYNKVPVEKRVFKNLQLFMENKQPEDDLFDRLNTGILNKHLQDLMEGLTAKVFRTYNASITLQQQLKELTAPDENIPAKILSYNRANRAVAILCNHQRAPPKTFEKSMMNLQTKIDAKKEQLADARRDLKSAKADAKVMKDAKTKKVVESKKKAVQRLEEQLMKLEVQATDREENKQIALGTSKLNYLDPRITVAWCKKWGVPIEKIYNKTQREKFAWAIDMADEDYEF

inhibition	SMILES
Active	O=c1c2ccccc2nc2n1[C@H](c1ccc(C(F)(F)F)cc1)C[C@@H]2O

The compounds below were run against T1, DNA topoisomerase 1 (Homo sapiens) (assay: Inhibition of human Topoisomerase 1 at 0.1 to 100 uM). Conditions: dose 0.1-100 µM.

SMILES	inhibition
CSc1ccc(C2c3cc4ccccc4nc3-c3nc4ccccc4c(=O)n32)cc1 (configuration not stated)	Active
COc1cccc(C2c3cc4ccccc4nc3-c3nc(=O)c4ccccc4n32)c1 (configuration not stated)	Active
O=c1nc2n(c3ccccc13)C(c1ccc(F)cc1)c1cc3ccccc3nc1-2 (configuration not stated)	Active
O=c1c2ccccc2nc2n1C(c1ccc(C(F)(F)F)cc1)c1cc3ccccc3nc1-2 (configuration not stated)	Active
COc1cc(C2c3cc4ccccc4nc3-c3nc4ccccc4c(=O)n32)cc(OC)c1OC (configuration not stated)	Active
O=c1nc2n(c3ccccc13)C(c1ccccc1)c1cc3ccccc3nc1-2 (configuration not stated)	Active
O=c1c2ccccc2nc2n1C(c1ccccc1)c1cc3ccccc3nc1-2 (configuration not stated)	Active
O=c1c2ccccc2nc2n1C(c1cccc(Br)c1)c1cc3ccccc3nc1-2 (configuration not stated)	Active
COc1ccc(C2c3cc4ccccc4nc3-c3nc4ccccc4c(=O)n32)cc1 (configuration not stated)	Active
O=c1c2ccccc2nc2n1C(c1ccc(F)cc1)c1cc3ccccc3nc1-2 (configuration not stated)	Active
Cc1ccccc1C1c2cc3ccccc3nc2-c2nc(=O)c3ccccc3n21 (configuration not stated)	Active
O=c1c2ccccc2nc2n1C(c1ccc(Cl)cc1)c1cc3ccccc3nc1-2 (configuration not stated)	Active
Cc1ccc(C2c3cc4ccccc4nc3-c3nc(=O)c4ccccc4n32)cc1 (configuration not stated)	Active
O=c1nc2n(c3ccccc13)C(c1ccc(Cl)cc1)c1cc3ccccc3nc1-2 (configuration not stated)	Active
O=c1c2ccccc2nc2n1C(c1ccc(Br)cc1)c1cc3ccccc3nc1-2 (configuration not stated)	Active
CSc1ccc(C2c3cc4ccccc4nc3-c3nc(=O)c4ccccc4n32)cc1 (configuration not stated)	Active
Cc1ccccc1C1c2cc3ccccc3nc2-c2nc3ccccc3c(=O)n21 (configuration not stated)	Active

Now from value to compound:

inhibition	SMILES
Active	Cc1ccc(C2c3cc4ccccc4nc3-c3nc4ccccc4c(=O)n32)cc1 (configuration not stated)
Active	O=c1nc2n(c3ccccc13)C(c1ccc(Br)cc1)c1cc3ccccc3nc1-2 (configuration not stated)
Active	COc1ccc(C2c3cc4ccccc4nc3-c3nc(=O)c4ccccc4n32)cc1 (configuration not stated)
Active	COc1cccc(C2c3cc4ccccc4nc3-c3nc4ccccc4c(=O)n32)c1 (configuration not stated)
Active	COc1cc(C2c3cc4ccccc4nc3-c3nc(=O)c4ccccc4n32)cc(OC)c1OC (configuration not stated)
Active	O=c1nc2n(c3ccccc13)C(c1ccc(C(F)(F)F)cc1)c1cc3ccccc3nc1-2 (configuration not stated)
Active	O=c1nc2n(c3ccccc13)C(c1cccc(Br)c1)c1cc3ccccc3nc1-2 (configuration not stated)

These compounds were tested against T1, DNA topoisomerase 1 (Homo sapiens) (assay: Inhibition of human Topoisomerase 1 at 10 to 100 uM). Conditions: dose 10-100 µM.

inhibition	SMILES
Active	O=c1c2ccccc2nc2n1[C@H](c1cccc(Br)c1)C[C@@H]2O

What follows are compounds tested against T1, DNA topoisomerase 1 (Homo sapiens) (assay: Inhibition of human Topoisomerase 1 at 1 to 100 uM). Conditions: dose 1-100 µM.

inhibition	SMILES
Active	CSc1ccc([C@@H]2C[C@H](O)c3nc4ccccc4c(=O)n32)cc1
